Where “and” joins values, the source holds several entries; their conditions need not be identical. Identical values can stand only once. Marks after values point to notes of the source that are not given here.
Legend:
[1] = tested on: C57BL/6J mice; assay: Weight of adipose tissues (EAT, BAT); assay type: in vivo; conditions: HD (high-fat diet), HCA 300 mg/kg BW/day oral, 8 weeks
From the text: Four-week-old male C57BL/6J mice were purchased from Central Lab-Animal Inc. (Seoul, Korea), adapted for a week to a normal diet in which fats accounted for 10% of the total calories, and then used for experiments. To induce obesity, a high fat diet in which fats accounted for 60% of the total calories was supplied to all groups other than a normal diet (ND) group and an ND sample group, and a normal diet in which fats accounted for 10% of the total calories was freely supplied to the ND group and the ND sample group for a total of 8 weeks. The experimental groups were divided into a total of 6 groups: a ND group, a high fat diet (HD) group, a positive control (HCA), a sample group (ND+JMW) in which a hot-water extract complex of bamboo leaves plus quince was administered to the ND group, and sample-efficacy groups (HD+JMW200 and HD+JMW400) in which a two-fold concentration of the hot-water extract complex of bamboo leaves plus quince was administered to the high fat diet group. In this case, ten mice were assigned to each group using a randomized block design, and used for experiments. […] The weights of the adipose tissues in the laboratory animals treated with the hot-water extract complex of bamboo leaves plus quince were measured.

[2] = tested on: 3T3-L1 adipocytes; assay: Analysis of triglyceride content; assay type: cell-based; conditions: 100 μg/mL; differentiated adipocytes 126.2±1.25
Description: (§1) An adipocyte 3T3-L1 cell line was purchased from the American Type Culture Collection (Rockville, Md., USA), and cultured at 37° C. in a DMEM (Invitrogen, USA) medium supplemented with 10% fetal bovine serum (FBS; Invitrogen, USA) in a 5% CO2 incubator. To avoid contamination, 100 units/mL of penicillin and 100 μg/mL of streptomycin (Gibco/BRL, USA) as antibiotics were added thereto, and the cells were treated with trypsin-EDTA (Gibco/BRL, USA), and sub-cultured. The medium was replaced with a fresh one every two or three days. For treatment with the extract complex, the cultured 3T3-L1 cell line was transferred to a 24-well plate (Corning, USA) at a density of 1×10^5 cells/well. After the medium was replaced with a FBS-free medium the next evening, the 3T3-L1 cell line was treated for 16 hours. 3T3-L1 adipocytes were treated with each of the 30% ethanol extract complex of bamboo leaves plus quince and the hot-water extract complex of bamboo leaves plus quince at concentrations of 50 and 100 μg/mL to measure a concentration of triglycerides.

[3] = tested on: C57BL/6J mice; assay: Body weight gain, food intake and food efficiency ratio, 8-week oral administration; assay type: in vivo; conditions: HD (high-fat diet), HCA 300 mg/kg BW/day oral, 8 weeks
From the text: (§2) Four-week-old male C57BL/6J mice were purchased from Central Lab-Animal Inc. (Seoul, Korea), adapted for a week to a normal diet in which fats accounted for 10% of the total calories, and then used for experiments. To induce obesity, a high fat diet in which fats accounted for 60% of the total calories was supplied to all groups other than a normal diet (ND) group and an ND sample group, and a normal diet in which fats accounted for 10% of the total calories was freely supplied to the ND group and the ND sample group for a total of 8 weeks. The experimental groups were divided into a total of 6 groups: a ND group, a high fat diet (HD) group, a positive control (HCA), a sample group (ND+JMW) in which a hot-water extract complex of bamboo leaves plus quince was administered to the ND group, and sample-efficacy groups (HD+JMW200 and HD+JMW400) in which a two-fold concentration of the hot-water extract complex of bamboo leaves plus quince was administered to the high fat diet group. In this case, ten mice were assigned to each group using a randomized block design, and used for experiments. To check an anti-obesity effect of the sample extract for 8 weeks (week 1 to 8) after a one-week adaptation, the test material was dissolved in distilled water, and orally administered to the positive control, the ND sample group, and the HD sample-efficacy groups once a day at a concentration of 300 mg/kg BW/day, 400 mg/kg BW/day, 200 mg/kg BW/day, and 400 mg/kg BW/day, respectively. Also, distilled water was administered to the ND group and the HD group. After laboratory animals were adapted for a week, the hot-water extract complex of bamboo leaves plus quince was orally administered to the C57BL/6J mice for 8 weeks to observe a change in body weight.

[4] = tested on: 3T3-L1 adipocytes; assay: Analysis of glycerol release; assay type: cell-based; conditions: 100 μg/mL; differentiated adipocytes 18.10±2.28
Description: as §1, with “measure an amount of glycerol production. An amount of glycerol production in undifferentiated pre-adipocytes was 2.46±1.34 μg/mL, an amount of glycerol production in differentiated adipocytes was 18.10±2.28 μg/mL, and an amount of glycerol production in the positive control was 32.09±1.23 μg/mL when HCA was present at” for “measure”, “100 μg/m L.” for “triglycerides.”

[5] = tested on: C57BL/6J mice; assay: Analysis of blood lipids; assay type: in vivo; conditions: HD (high-fat diet), HCA 300 mg/kg BW/day oral, 8 weeks
From the text: as §2, with “An amount of blood lipids (triglycerides and cholesterol) was measured in the” for “After”, “treated with” for “were adapted for a week,”, “quince.” for “quince was orally administered to the C57BL/6J mice for 8 weeks to observe a change in body weight.”

[6] = tested on: 3T3-L1 adipocytes; assay: Analysis of leptin production (ELISA kit); assay type: cell-based; conditions: 100 μg/mL; differentiated adipocytes 0.50±0.01
Description: as §1, with “hours. Leptin is a hormone that is produced by an obesity gene in adipocytes. Thus, a blood leptin concentration has been widely used for obesity research as an indicator of body fat mass because a secretion rate of leptin increases with an increase in fat accumulated in the adipocytes. […]” for “hours.”, “μg/mL, and” for “μg/mL to measure”, “leptin was then measured using an ELISA kit.” for “triglycerides.”

## O=C(O)CC(O)(C(=O)O)C(O)C(=O)O (stereo not shown) [HCA, hydroxycitric acid]
[1]
  BAT (brown adipose tissue) weight: 0.09 ± 0.02^b g
  EAT (epididymal adipose tissue) weight: 1.70 g and 1.70 ± 0.14^b g
[2]
  triglyceride content: 98.01±1.24 μg/mg protein
[3]
  Final body weight: 33.50 ± 3.58^b g
  Food intake: 3.79 g/day and 3.79 ± 0.05^c g/day
  Weight gain: 12.83 g/8 weeks and 12.83 ± 0.94^b g/8 weeks
[4]
  amount of glycerol production: 32.09 ± 1.23 µg/mL
[5]
  HDL-cholesterol: 75.66 mg/dL and 75.66 ± 8.11^b mg/dL
  LDL-cholesterol: 131.06 ± 6.82^b mg/dL
  Total cholesterol (blood): 241.53 mg/dL and 241.53 ± 8.87^b mg/dL
  Triglyceride (blood): 174.08 mg/dL and 174.08 ± 3.49^b mg/dL
[5]; listed as positive control
  LDL-cholesterol: 131.06 mg/dL
[6]
  amount of leptin production: 0.39 ± 0.01 ng/mL

Source: US20180193401A1, “ANTI-OBESITY COMPOSITION COMPRISING NATURAL COMPLEX” (MEGABIOWOOD CO., LTD., priority 2017, published 2018)
